Assay results as given in PubChem BioAssay (NCI).
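Exposure lasted 48 hours, with cells grown in 96-well plates and compounds tested at five concentrations. At the TGI there is no net growth.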

What was measured:
Test in all cases: NCI-60 cell line screen, 48 h
K-562 leukemia = tested on: K-562 leukemia
SNB-75 CNS = tested on: SNB-75 CNS
DLD-1 colon = tested on: DLD-1 colon
HL-60(TB) leukemia = tested on: HL-60(TB) leukemia
SN12C renal = tested on: SN12C renal
SK-OV-3 ovarian = tested on: SK-OV-3 ovarian
U251 CNS = tested on: U251 CNS
HCC-2998 colon = tested on: HCC-2998 colon
MALME-3M melanoma = tested on: MALME-3M melanoma
SF-539 CNS = tested on: SF-539 CNS
PC-3 prostate = tested on: PC-3 prostate
HOP-92 NSCLC = tested on: HOP-92 NSCLC
MOLT-4 leukemia = tested on: MOLT-4 leukemia
KM20L2 colon = tested on: KM20L2 colon
OVCAR-3 ovarian = tested on: OVCAR-3 ovarian
SR leukemia = tested on: SR leukemia
786-0 renal = tested on: 786-0 renal
SF-295 CNS = tested on: SF-295 CNS
NCI-H460 lung = tested on: NCI-H460 lung
IGROV1 ovarian = tested on: IGROV1 ovarian
T-47D breast = tested on: T-47D breast
NCI-H23 lung = tested on: NCI-H23 lung
A498 renal = tested on: A498 renal
HOP-62 NSCLC = tested on: HOP-62 NSCLC
OVCAR-8 ovarian = tested on: OVCAR-8 ovarian
SK-MEL-2 melanoma = tested on: SK-MEL-2 melanoma
HT29 colon = tested on: HT29 colon
MDA-N = tested on: MDA-N
A549 NSCLC = tested on: A549 NSCLC
HS 578T breast = tested on: HS 578T breast
DU-145 prostate = tested on: DU-145 prostate
RPMI-8226 leukemia = tested on: RPMI-8226 leukemia
NCI-H226 lung = tested on: NCI-H226 lung
MDA-MB-231 breast = tested on: MDA-MB-231 breast
CCRF-CEM leukemia = tested on: CCRF-CEM leukemia
UACC-257 melanoma = tested on: UACC-257 melanoma
UO-31 renal = tested on: UO-31 renal
SK-MEL-5 melanoma = tested on: SK-MEL-5 melanoma
KM12 colon = tested on: KM12 colon
OVCAR-4 ovarian = tested on: OVCAR-4 ovarian
SK-MEL-28 melanoma = tested on: SK-MEL-28 melanoma
CAKI-1 renal = tested on: CAKI-1 renal
DMS 114 small cell lung = tested on: DMS 114 small cell lung
SNB-19 CNS = tested on: SNB-19 CNS
RXF 393 renal = tested on: RXF 393 renal
LXFL 529 NSCLC = tested on: LXFL 529 NSCLC
DMS 273 small cell lung = tested on: DMS 273 small cell lung
M19-MEL melanoma = tested on: M19-MEL melanoma
SF-268 CNS = tested on: SF-268 CNS
UACC-62 melanoma = tested on: UACC-62 melanoma
HCT-15 colon = tested on: HCT-15 colon
M14 melanoma = tested on: M14 melanoma
NCI-H522 lung = tested on: NCI-H522 lung
COLO 205 colon = tested on: COLO 205 colon
BT-549 breast = tested on: BT-549 breast
TK-10 renal = tested on: TK-10 renal
EKVX NSCLC = tested on: EKVX NSCLC
SNB-78 CNS = tested on: SNB-78 CNS
OVCAR-5 ovarian = tested on: OVCAR-5 ovarian
SW-620 colon = tested on: SW-620 colon
LOX IMVI melanoma = tested on: LOX IMVI melanoma
HCT-116 colon = tested on: HCT-116 colon
RXF-631 renal = tested on: RXF-631 renal
ACHN renal = tested on: ACHN renal
XF 498 CNS = tested on: XF 498 CNS

## COCC(=O)[C@]1(O)Cc2c(O)c3c(c(O)c2[C@@H](OC2CC(N)C(O)C(C)O2)C1)C(=O)c1c(OC)cccc1C3=O (some centres undefined)
K-562 leukemia
  TGI: 0.785 µM
SNB-75 CNS
  TGI: 0.161 µM
DLD-1 colon
  TGI: 5.15 µM
HL-60(TB) leukemia
  TGI: 0.184 µM
SN12C renal
  TGI: 3.42 µM
SK-OV-3 ovarian
  TGI: 4.03 µM
U251 CNS
  TGI: 1.27 µM
HCC-2998 colon
  TGI: 0.691 µM
MALME-3M melanoma
  TGI: 0.335 µM
SF-539 CNS
  TGI: 0.312 µM
PC-3 prostate
  TGI: 1.48 µM
HOP-92 NSCLC
  TGI: 1.12 µM
MOLT-4 leukemia
  TGI: 0.054 µM
KM20L2 colon
  TGI: 0.938 µM
OVCAR-3 ovarian
  TGI: 0.536 µM
SR leukemia
  TGI: 0.159 µM
786-0 renal
  TGI: 12.2 µM
SF-295 CNS
  TGI: 1.34 µM
NCI-H460 lung
  TGI: 0.583 µM
IGROV1 ovarian
  TGI: 6.83 µM
T-47D breast
  TGI: 0.737 µM
NCI-H23 lung
  TGI: 0.256 µM
A498 renal
  TGI: 0.624 µM
HOP-62 NSCLC
  TGI: 0.847 µM
OVCAR-8 ovarian
  TGI: 3.95 µM
SK-MEL-2 melanoma
  TGI: 0.259 µM
HT29 colon
  TGI: 0.735 µM
MDA-N
  TGI: 0.249 µM
A549 NSCLC
  TGI: 17.4 µM
HS 578T breast
  TGI: 0.0892 µM
DU-145 prostate
  TGI: 0.974 µM
RPMI-8226 leukemia
  TGI: 0.564 µM
NCI-H226 lung
  TGI: 0.665 µM
MDA-MB-231 breast
  TGI: 2.97 µM
CCRF-CEM leukemia
  TGI: 0.4 µM
UACC-257 melanoma
  TGI: 1.48 µM
UO-31 renal
  TGI: 0.231 µM
SK-MEL-5 melanoma
  TGI: 0.228 µM
KM12 colon
  TGI: 0.357 µM
OVCAR-4 ovarian
  TGI: 1.56 µM
SK-MEL-28 melanoma
  TGI: 0.398 µM
CAKI-1 renal
  TGI: 0.422 µM
DMS 114 small cell lung
  TGI: 0.477 µM
SNB-19 CNS
  TGI: 2.45 µM
RXF 393 renal
  TGI: 0.267 µM
LXFL 529 NSCLC
  TGI: 2.11 µM
DMS 273 small cell lung
  TGI: 0.603 µM
M19-MEL melanoma
  TGI: 0.339 µM
SF-268 CNS
  TGI: 0.267 µM
UACC-62 melanoma
  TGI: 0.255 µM
HCT-15 colon
  TGI: 0.498 µM
M14 melanoma
  TGI: 0.275 µM
NCI-H522 lung
  TGI: 0.124 µM
COLO 205 colon
  TGI: 1.63 µM
BT-549 breast
  TGI: 1.99 µM
TK-10 renal
  TGI: 13.8 µM
EKVX NSCLC
  TGI: 2.9 µM
SNB-78 CNS
  TGI: 30.6 µM
OVCAR-5 ovarian
  TGI: 1.04 µM
SW-620 colon
  TGI: 3.01 µM
LOX IMVI melanoma
  TGI: 0.148 µM
HCT-116 colon
  TGI: 1.08 µM

## COc1cc(C)c(C(=O)/C=C/c2cc(OC)c(O)c(OC)c2)cc1O
K-562 leukemia
  TGI: > 100 µM
SNB-75 CNS
  TGI: > 100 µM
DLD-1 colon
  TGI: 35.1 µM
HL-60(TB) leukemia
  TGI: 64.8 µM
RXF-631 renal
  TGI: 59.8 µM
SK-OV-3 ovarian
  TGI: 85.1 µM
U251 CNS
  TGI: 44.6 µM
HCC-2998 colon
  TGI: 30.5 µM
MALME-3M melanoma
  TGI: 36.9 µM
SF-539 CNS
  TGI: 93.1 µM
MOLT-4 leukemia
  TGI: > 100 µM
KM20L2 colon
  TGI: 57.6 µM
ACHN renal
  TGI: > 100 µM
OVCAR-3 ovarian
  TGI: 91.1 µM
786-0 renal
  TGI: 39.7 µM
SF-295 CNS
  TGI: > 100 µM
NCI-H460 lung
  TGI: > 100 µM
IGROV1 ovarian
  TGI: 85 µM
XF 498 CNS
  TGI: 30.7 µM
NCI-H23 lung
  TGI: 36.4 µM
A498 renal
  TGI: 97.5 µM
HOP-62 NSCLC
  TGI: 69.3 µM
OVCAR-8 ovarian
  TGI: > 100 µM
SK-MEL-2 melanoma
  TGI: 38.8 µM
HT29 colon
  TGI: > 100 µM
A549 NSCLC
  TGI: > 100 µM
RPMI-8226 leukemia
  TGI: > 100 µM
CCRF-CEM leukemia
  TGI: 62.7 µM
UACC-257 melanoma
  TGI: > 100 µM
UO-31 renal
  TGI: 57.5 µM
SK-MEL-5 melanoma
  TGI: 33.6 µM
KM12 colon
  TGI: 50 µM
OVCAR-4 ovarian
  TGI: 49.3 µM
SK-MEL-28 melanoma
  TGI: 41.4 µM
CAKI-1 renal
  TGI: > 100 µM
DMS 114 small cell lung
  TGI: 72.3 µM
SNB-19 CNS
  TGI: 44.5 µM
LXFL 529 NSCLC
  TGI: 40.3 µM
DMS 273 small cell lung
  TGI: 70.1 µM
M19-MEL melanoma
  TGI: 54 µM
SF-268 CNS
  TGI: 78.4 µM
UACC-62 melanoma
  TGI: 44.1 µM
M14 melanoma
  TGI: 29.9 µM
NCI-H522 lung
  TGI: 39.6 µM
COLO 205 colon
  TGI: > 100 µM
TK-10 renal
  TGI: > 100 µM
EKVX NSCLC
  TGI: > 100 µM
SNB-78 CNS
  TGI: > 100 µM
OVCAR-5 ovarian
  TGI: 69.9 µM
SW-620 colon
  TGI: 70.8 µM
LOX IMVI melanoma
  TGI: > 100 µM
HCT-116 colon
  TGI: 27 µM
